Laboratory results: patent US8053574B2, “Organic compounds” (Novartis AG, priority 2007, dated 2011)

Biological target: PI3K γ (Homo sapiens, UniProt P48736)
Assay: PI3 kinase phosphorylation assay (Biological Method 1), Ki γ
Assay type: biochemical
Settings: Table 1, compounds of formula X
Procedure: The compounds of the invention were synthesized according to the examples provided above. PI3K inhibitory (IC50) values of the compounds were determined according to Biological Method 1.
Assay 1: Homogenous Solution Phase Assay
Compounds to be tested are dissolved in DMSO and directly distributed into 384-well flashplates at 1.25 μL per well. To start the reaction, 20 μL of 6 nM PI3 kinase are added into each well followed by 20 μL of 400 nM ATP containing a trace of radiolabeled ATP and 900 nM 1-alpha-phosphatidylinositol (PI). The plates are briefly centrifuged to remove any air gap. The reaction is performed for 15 minutes and then stopped by the addition of 20 μL of 100 mM EDTA. The stopped reaction is incubated overnight at RT to allow the lipid substrate to bind by hydrophobic interaction to the surface of the flashplate. The liquid in the wells is then washed away, and the labeled substrate is detected with scintillation counting.
Assay 2: One Step Solid Phase Assay
This method is similar to Assay 1 except that the lipid substrate (1-alpha-phosphatidylinositol (PI)) is first dissolved in a coating buffer and incubated on flashplate at room temperature overnight to allow the lipid substrate to bind by hydrophobic interaction to the surface of the flashplate. Unbound substrate is then washed away. On the day of assay, 20 μL of 6 nM PI3 kinase are added into each well followed by 20 μL of 400 nM ATP containing trace of radiolabeled ATP. Compounds are added together with enzyme and ATP to the lipid-coated plates. The plates are briefly centrifuged to remove any air gap. The reaction is performed for two to three hours. The reaction is stopped by addition of 20 μL of 100 mM EDTA or by immediate plate washing. Phosphorylated lipid substrate is detected by scintillation counting.
Assay 3: ATP Depletion Assay
Compounds to be tested are dissolved in DMSO and directly distributed into a black 384-well plate at 1.25 μL per well. To start the reaction, 25 μL of 10 nM PI3 kinase and 5 μg/mL 1-alpha-phosphatidylinositol (PI) are added into each well followed by 25 μL of 2 μM ATP. The reaction is performed until approx 50% of the ATP is depleted, and then stopped by the addition of 25 μL of KinaseGlo solution. The stopped reaction is incubated for 5 minutes and the remaining ATP is then detected via luminescence.

Sequence of PI3K γ (P48736 whole entry): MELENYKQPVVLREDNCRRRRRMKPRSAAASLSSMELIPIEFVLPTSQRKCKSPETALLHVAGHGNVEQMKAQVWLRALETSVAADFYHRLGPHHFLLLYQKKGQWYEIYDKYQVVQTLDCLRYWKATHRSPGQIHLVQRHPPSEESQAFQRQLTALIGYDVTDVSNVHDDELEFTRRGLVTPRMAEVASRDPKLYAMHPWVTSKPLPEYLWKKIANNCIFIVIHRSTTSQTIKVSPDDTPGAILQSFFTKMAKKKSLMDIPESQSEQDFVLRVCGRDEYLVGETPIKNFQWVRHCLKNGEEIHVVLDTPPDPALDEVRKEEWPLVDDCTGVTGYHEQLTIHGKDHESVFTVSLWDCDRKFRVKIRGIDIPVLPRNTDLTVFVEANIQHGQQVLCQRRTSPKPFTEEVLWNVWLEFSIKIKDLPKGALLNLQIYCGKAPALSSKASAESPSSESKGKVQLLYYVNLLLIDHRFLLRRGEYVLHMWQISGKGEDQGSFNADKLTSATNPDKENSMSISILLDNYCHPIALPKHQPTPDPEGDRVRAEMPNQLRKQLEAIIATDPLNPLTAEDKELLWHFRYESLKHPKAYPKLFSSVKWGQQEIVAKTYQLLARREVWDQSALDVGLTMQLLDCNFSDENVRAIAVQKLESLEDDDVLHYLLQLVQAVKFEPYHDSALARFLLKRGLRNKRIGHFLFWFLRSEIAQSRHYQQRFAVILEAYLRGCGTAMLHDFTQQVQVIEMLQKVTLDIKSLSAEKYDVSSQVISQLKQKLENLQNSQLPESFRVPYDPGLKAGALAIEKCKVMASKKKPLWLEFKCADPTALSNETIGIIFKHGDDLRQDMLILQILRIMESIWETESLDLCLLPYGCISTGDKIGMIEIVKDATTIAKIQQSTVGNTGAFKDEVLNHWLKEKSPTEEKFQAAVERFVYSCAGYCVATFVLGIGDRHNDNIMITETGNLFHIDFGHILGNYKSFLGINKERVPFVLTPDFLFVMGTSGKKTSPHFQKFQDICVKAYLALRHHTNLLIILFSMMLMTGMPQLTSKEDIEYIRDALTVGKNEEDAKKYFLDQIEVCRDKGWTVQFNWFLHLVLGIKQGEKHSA

Row | Compound | Ki
1 | CC(C)n1nnc(CCNC(=O)Nc2cn3cc(-c4ccncc4)ccc3n2)n1 [drawing 17] | 0.135 µM
2 | CC(C)n1nnc(CCNC(=O)Nc2cn3cc(-c4cncc(C#N)c4)ccc3n2)n1 [drawing 19] | 0.04 µM
3 | CCOc1cncc(-c2ccc3nc(NC(=O)NCCc4nnn(C(C)C)n4)cn3c2)c1 [drawing 25] | 0.048 µM
4 | CCn1nnc(CCNC(=O)Nc2cn3cc(-c4cccc(C(F)(F)F)c4)ccc3n2)n1 [drawing 31] | 0.24 µM
5 | CC(C)n1nnc(CCNC(=O)Nc2cn3cc(-c4cncc(-c5ccccc5)c4)ccc3n2)n1 [drawing 45] | 0.24 µM
6 | COCCOCCOc1cncc(-c2ccc3nc(NC(=O)NCCc4nnn(C(C)C)n4)cn3c2)c1 [drawing 47] | 0.268 µM
7 | CC(C)(C)NC(=O)CCNC(=O)Nc1cn2cc(-c3cncc(OC4CCOCC4)c3)ccc2n1 [drawing 49] | 0.397 µM
8 | COc1ccc(-c2ccc3nc(NC(=O)NCCc4nnn(C(C)C)n4)cn3c2)cn1 [drawing 51] | 0.301 µM
9 | CCc1cncc(-c2ccc3nc(NC(=O)NCCc4nnn(C(C)C)n4)cn3c2)c1 [drawing 57] | 0.025 µM
10 | Cc1ccc(-c2ccc3nc(NC(=O)NCCc4nnn(C(C)C)n4)cn3c2)cn1 [drawing 61] | 0.113 µM
11 | CCc1nnn(CCNC(=O)Nc2cn3cc(-c4cncc(C#N)c4)ccc3n2)n1 [drawing 65] | 0.115 µM
12 | O=C(NCCn1nnc(C2CC2)n1)Nc1cn2cc(-c3cncc(C(F)(F)F)c3)ccc2n1 [drawing 67] | 0.028 µM
13 | CC(C)n1nnc(CCNC(=O)Nc2cn3cc(-c4cccc(F)c4)ccc3n2)n1 [drawing 69] | 0.836 µM
14 | CC(C)n1nnc(CCNC(=O)Nc2cn3cc(-c4ccccc4)ccc3n2)n1 [drawing 75] | 0.423 µM
15 | O=C(NCCc1nnn(CCF)n1)Nc1cn2cc(-c3cncc(C(F)(F)F)c3)ccc2n1 [drawing 83] | 0.002 µM
16 | Cn1nnc(CCNC(=O)Nc2cn3cc(-c4cncc(C(F)(F)F)c4)ccc3n2)n1 [drawing 89] | 0.012 µM
17 | Cc1ccccc1-c1cncc(-c2ccc3nc(NC(=O)NCCc4nnn(C(C)C)n4)cn3c2)c1 [drawing 91] | 1.12 µM

Second part, the compound after the results:

Row | Ki | Compound
18 | 0.165 µM | CC(C)n1nnc(CCNC(=O)Nc2cn3cc(-c4cncnc4)ccc3n2)n1 [drawing 21]
19 | 0.018 µM | CC(C)n1nnc(CCNC(=O)Nc2cn3cc(-c4cncc(C(F)(F)F)c4)ccc3n2)n1 [drawing 27]
20 | 0.303 µM | CCn1nnc(CCNC(=O)Nc2cn3cc(-c4ccc5c(c4)OCO5)ccc3n2)n1 [drawing 29]
21 | 0.05 µM | CC(C)n1nnc(CCNC(=O)Nc2cn3cc(-c4cncc(Cl)c4)ccc3n2)n1 [drawing 37]
22 | 0.147 µM | CC(C)n1nnc(CCNC(=O)Nc2cn3cc(-c4cncc(OC5CCOCC5)c4)ccc3n2)n1 [drawing 39]
23 | 0.207 µM | CC(C)(C)NC(=O)CCNC(=O)Nc1cn2cc(-c3cncc(-c4ccccc4)c3)ccc2n1 [drawing 43]
24 | 0.075 µM | COc1ccc(-c2ccc3nc(NC(=O)NCCc4nnn(CCF)n4)cn3c2)cn1 [drawing 53]
25 | 0.028 µM | CCn1cnc(CCNC(=O)Nc2cn3cc(-c4cncc(C(F)(F)F)c4)ccc3n2)c1 [drawing 59]
26 | 0.026 µM | CCc1nnn(CCNC(=O)Nc2cn3cc(-c4cncc(C(F)(F)F)c4)ccc3n2)n1 [drawing 63]
27 | 1.03 µM | COc1cccc(-c2ccc3nc(NC(=O)NCCc4nnn(C(C)C)n4)cn3c2)c1 [drawing 71]
28 | 0.57 µM | CCn1nnc(CCNC(=O)Nc2cn3cc(-c4cnc5ccccc5c4)ccc3n2)n1 [drawing 73]
29 | 0.007 µM | CCn1nnc(CCNC(=O)Nc2cn3cc(-c4cncc(C(F)(F)F)c4)ccc3n2)n1 [drawing 81]
30 | 0.456 µM | CCn1nnc(CCNC(=O)Nc2cn3cc(-c4cnn(C)c4)ccc3n2)n1 [drawing 93]
31 | 0.158 µM | CCn1nnc(CCNC(=O)Nc2cn3cc(-c4cncc5ccccc45)ccc3n2)n1 [drawing 97]
32 | 0.008 µM | CC(=O)c1cncc(-c2ccc3nc(NC(=O)NCCc4nnn(C(C)C)n4)cn3c2)c1 [drawing 99]
33 | 0.911 µM | CCn1nnc(CCNC(=O)Nc2cn3cc(Br)ccc3n2)n1 [drawing 103]

Same assay, conditions: Table 4

Row | Ki | Compound
34 | 0.107 µM | CCn1nnc(CCNC(=O)Nc2cn3nc(-c4cncc(F)c4)ccc3n2)n1 [Example 3-17, 1-[2-(2-Ethyl-2H-tetrazol-5-yl)-ethyl]-3-[6-(5-fluoro-pyridin-3-yl)-imidazo[1,2-b]pyridazin-2-yl]-urea]
35 | 0.248 µM | CCn1nnc(CCNC(=O)Nc2cn3nc(-c4cnccc4C)ccc3n2)n1 [Example 3-18, 1-[2-(2-Ethyl-2H-tetrazol-5-yl)-ethyl]-3-[6-(4-methyl-pyridin-3-yl)-imidazo[1,2-b]pyridazin-2-yl]-urea]
